The text below walks through data of patent US9815839B2, “N-(1-(substituted-phenyl)ethyl)-9H-purin-6-amines as PI3K inhibitors” (Incyte Corporation, priority 2010, dated 2017).

Molecules are shown by their SMILES.

For orientation: IC50 means the midpoint of a concentration-inhibition curve. Higher therefore signals lower potency.

The target in the experiment is T1, PI3Kδ (p110δ/p85α) (Homo sapiens, UniProt O00329).
T1 construct: purchased Millipore (Bedford, Mass.)
T1 sequence (O00329 whole entry, species assumed): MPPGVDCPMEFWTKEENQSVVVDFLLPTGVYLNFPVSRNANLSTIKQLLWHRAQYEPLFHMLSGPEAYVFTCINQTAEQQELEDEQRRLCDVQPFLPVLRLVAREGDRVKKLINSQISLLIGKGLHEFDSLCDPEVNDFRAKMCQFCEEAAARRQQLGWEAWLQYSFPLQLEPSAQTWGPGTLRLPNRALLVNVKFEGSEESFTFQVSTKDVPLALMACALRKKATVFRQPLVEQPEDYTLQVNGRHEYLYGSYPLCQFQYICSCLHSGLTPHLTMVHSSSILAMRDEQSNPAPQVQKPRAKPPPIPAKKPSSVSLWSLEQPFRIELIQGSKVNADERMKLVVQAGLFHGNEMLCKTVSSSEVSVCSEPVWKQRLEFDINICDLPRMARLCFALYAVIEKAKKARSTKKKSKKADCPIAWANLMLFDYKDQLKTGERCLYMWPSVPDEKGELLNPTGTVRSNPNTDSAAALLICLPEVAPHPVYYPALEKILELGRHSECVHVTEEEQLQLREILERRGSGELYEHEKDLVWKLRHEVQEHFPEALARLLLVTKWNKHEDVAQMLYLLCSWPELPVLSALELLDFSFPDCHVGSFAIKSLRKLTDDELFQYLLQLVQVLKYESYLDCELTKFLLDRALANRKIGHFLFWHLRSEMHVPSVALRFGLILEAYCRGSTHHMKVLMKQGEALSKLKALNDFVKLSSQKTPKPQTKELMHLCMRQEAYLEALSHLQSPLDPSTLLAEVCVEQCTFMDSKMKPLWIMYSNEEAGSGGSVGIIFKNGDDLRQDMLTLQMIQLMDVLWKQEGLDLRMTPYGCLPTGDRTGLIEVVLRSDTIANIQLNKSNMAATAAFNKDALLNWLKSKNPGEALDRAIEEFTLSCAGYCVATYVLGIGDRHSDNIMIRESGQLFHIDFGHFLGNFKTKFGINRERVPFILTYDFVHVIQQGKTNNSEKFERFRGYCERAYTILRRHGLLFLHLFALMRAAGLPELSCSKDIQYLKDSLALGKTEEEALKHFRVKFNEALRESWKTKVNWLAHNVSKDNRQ
T1 sequence (P27986 whole entry partner, species assumed): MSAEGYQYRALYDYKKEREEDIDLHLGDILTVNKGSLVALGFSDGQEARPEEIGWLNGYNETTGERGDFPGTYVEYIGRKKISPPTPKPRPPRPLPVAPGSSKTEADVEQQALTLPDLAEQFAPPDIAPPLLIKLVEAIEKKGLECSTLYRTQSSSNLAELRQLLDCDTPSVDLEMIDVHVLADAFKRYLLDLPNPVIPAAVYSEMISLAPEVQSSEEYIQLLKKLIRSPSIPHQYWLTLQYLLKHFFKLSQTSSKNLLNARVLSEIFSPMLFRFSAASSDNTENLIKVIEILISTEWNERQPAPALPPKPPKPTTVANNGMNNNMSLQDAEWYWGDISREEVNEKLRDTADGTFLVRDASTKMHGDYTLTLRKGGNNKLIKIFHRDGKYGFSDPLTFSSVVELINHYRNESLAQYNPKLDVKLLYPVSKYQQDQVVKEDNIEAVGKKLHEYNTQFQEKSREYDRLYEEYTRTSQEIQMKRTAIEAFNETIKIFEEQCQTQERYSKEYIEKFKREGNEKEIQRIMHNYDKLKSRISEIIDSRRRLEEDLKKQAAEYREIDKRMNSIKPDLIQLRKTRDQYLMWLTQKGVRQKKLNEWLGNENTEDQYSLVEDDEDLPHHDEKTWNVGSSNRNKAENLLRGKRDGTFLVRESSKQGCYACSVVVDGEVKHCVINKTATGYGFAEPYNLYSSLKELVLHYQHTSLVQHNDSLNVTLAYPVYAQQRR
Nature of the experiment: PI3Kδ scintillation proximity assay. Conditions: 20 μM ATP, 4 nM PI3Kδ. The experiment is classed as biochemical. An excerpt:
Example A: PI3Kδ Scintillation Proximity Assay
Materials: [γ-^33P]ATP (10 mCi/mL) was purchased from Perkin-Elmer (Waltham, Mass.). Lipid kinase substrate, D-myo-Phosphatidylinositol 4,5-bisphosphate (PtdIns(4,5)P2)D (+)-sn-1,2-di-O-octanoylglyceryl, 3-O-phospho linked (PIP2), CAS 204858-53-7, was purchased from Echelon Biosciences (Salt Lake City, Utah). PI3Kδ (p110δ/p85α) was purchased from Millipore (Bedford, Mass.). ATP, MgCl2, DTT, EDTA, MOPS and CHAPS were purchased from Sigma-Aldrich (St. Louis, Mo.). Wheat Germ Agglutinin (WGA) YSi SPA Scintillation Beads was purchased from GE healthcare life sciences (Piscataway, N.J.).
The kinase reaction was conducted in polystyrene 384-well matrix white plate from Thermo Fisher Scientific in a final volume of 25 μL. Inhibitors were first diluted serially in DMSO and added to the plate wells before the addition of other reaction components. The final concentration of DMSO in the assay was 0.5%. The PI3K assays were carried out at room temperature in 20 mM MOPS, pH 6.7, 10 mM MgCl2, 5 mM DTT and CHAPS 0.03%. Reactions were initiated by the addition of ATP, the final reaction mixture consisted of 20 μM PIP2,20 μM ATP, 0.2 μCi [γ-^33P] ATP, 4 nM PI3Kδ. Reactions were incubated for 210 minutes and terminated by the addition of 40 μL SPA beads suspended in quench buffer: 150 mM potassium phosphate pH 8.0, 20% glycerol. 25 mM EDTA, 400 µM ATP. The final concentration of SPA beads is 1.0 mg/mL. After the plate sealing, plates were shaken overnight at room temperature and centrifuged at 1800 rpm for 10 minutes, the radioactivity of the product was determined by scintillation counting on Topcount (Perkin-Elmer). IC50 determination was performed by fitting the curve of percent control activity versus the log of the inhibitor concentration using the GraphPad Prism 3.0 software.
(SPA uses beads or plates that emit light when radiolabelled molecules are held near them.)
Take `COc1c(C(C)Nc2ncnc3[nH]cnc23)cc(F)c(C)c1-c1ccc(C(=O)NC2CC2)cc1` (centres unmarked) [Example 120, N-cyclopropyl-3′-fluoro-6′-methoxy-2′-methyl-5′-[1-(9H-purin-6-ylamino)ethyl]biphenyl-4-carboxamide]: the IC50 was in the range of 50 to 100 nM.

As to `COc1c(C(C)Nc2ncnc3[nH]cnc23)cc(F)c(C)c1-c1cnn(C)c1` (centres unmarked) [Example 121, N-{1-[5-fluoro-2-methoxy-4-methyl-3-(1-methyl-1H-pyrazol-4-yl)phenyl]ethyl}-9H-purin-6-amine], the IC50 is less than 50 nM.

`COc1c(C(C)Nc2ncnc3[nH]cnc23)cc(F)c(C)c1-c1ccnn1C` (centres unmarked) [Example 122, N-{1-[5-fluoro-2-methoxy-4-methyl-3-(1-methyl-1H-pyrazol-5-yl)phenyl]ethyl}-9H-purin-6-amine]: the IC50 is 250 to 500 nM.

Molecule `COc1c(C(C)Nc2ncnc3[nH]cnc23)cc(F)c(C)c1-c1cnc(N)nc1` (centres unmarked) [Example 123, N-{1-[3-(2-aminopyrimidin-5-yl)-5-fluoro-2-methoxy-4-methylphenyl]ethyl}-9H-purin-6-amine] showed an IC50 of 50 to 100 nM.

In turn, `COc1c(-c2cncc(Cl)c2)cc(Cl)cc1C(C)Nc1ncnc2[nH]cnc12` (centres unmarked) [Example 125, N-{1-[5-Chloro-3-(5-chloropyridin-3-yl)-2-methoxyphenyl]ethyl}-9H-purin-6-amine] registered a half-inhibitory concentration (IC50) of 50 to 100 nM.

Regarding `Cc1c(Cl)cc(C(C)Nc2ncnc3[nH]cnc23)c(OCCN2CCOCC2)c1-c1ccncc1` (centres unmarked) [Example 126, N-{1-[5-Chloro-4-methyl-2-(2-morpholin-4-ylethoxy)-3-pyridin-4-ylphenyl]ethyl}-9H-purin-6-amine], the IC50 is less than 50 nM.

Molecule `Cc1c(Cl)cc(C(C)Nc2ncnc3[nH]cnc23)c(C)c1-c1ccncc1` (centres unmarked) [Example 127, N-[1-(5-Chloro-2,4-dimethyl-3-pyridin-4-ylphenyl)ethyl]-9H-purin-6-amine] had an IC50 of less than 50 nM.

In turn, `Cc1c(Cl)cc(C(C)Nc2ncnc3[nH]cnc23)c(OCCN2CCOCC2)c1-c1ccc(S(C)(=O)=O)cc1` (centres unmarked) [Example 128, N-{1-[5-Chloro-6-methyl-4′-(methylsulfonyl)-2-(2-morpholin-4-ylethoxy)biphenyl-3-yl]ethyl}-9H-purin-6-amine] returned an IC50 of less than 50 nM.

`COc1ncc(-c2cc(Cl)cc(C(C)Nc3ncnc4[nH]cnc34)c2-c2cc(F)cc(F)c2)cn1` (centres unmarked) [Example 129, N-{1-[4-chloro-3′,5′-difluoro-6-(2-methoxy-pyrimidin-5-yl)biphenyl-2-yl]ethyl}-9H-purin-6-amine]: the IC50 is less than 50 nM.

Take `CC(=O)Nc1ccc(-c2cc(Cl)cc(C(C)Nc3ncnc4[nH]cnc34)c2-c2cc(F)cc(F)c2)cc1` (centres unmarked) [Example 130, N-{5′-chloro-3″,5″-difluoro-3′-[1-(9H-purin-6-ylamino)ethyl]-1,1′:2′,1″-terphenyl-4-yl}acetamide]: the IC50 was less than 50 nM.

Regarding `CC(Nc1ncnc2[nH]cnc12)c1cc(Cl)cc(-c2ccncc2)c1-c1cc(F)cc(F)c1` (centres unmarked) [Example 131, N-[1-(4-chloro-3′,5′-difluoro-6-pyridin-4-ylbiphenyl-2-yl)ethyl]-9H-purin-6-amine], the IC50 is less than 50 nM.

`CC(Nc1ncnc2[nH]cnc12)c1cc(Cl)cc(-c2cncnc2)c1-c1cc(F)cc(F)c1` (centres unmarked) [Example 132, N-[1-(4-chloro-3′,5′-difluoro-6-pyrimidin-5-ylbiphenyl-2-yl)ethyl]-9H-purin-6-amine] returned an IC50 of less than 50 nM.

Consider `CC(Nc1ncnc2[nH]cnc12)c1cc(Cl)cc(-c2cc(F)nc(F)c2)c1-c1cc(F)cc(F)c1` (centres unmarked) [Example 133, N-{1-[4-chloro-6-(2,6-difluoropyridin-4-yl)-3′,5′-difluorobiphenyl-2-yl]ethyl}-9H-purin-6-amine], for which the IC50 lay within 50 to 100 nM.

`CC(Nc1ncnc2[nH]cnc12)c1cc(Cl)cc(-c2ccc(S(C)(=O)=O)cc2)c1-c1cc(F)cc(F)c1` (centres unmarked) [Example 134, N-{1-[5′-chloro-3″,5″-difluoro-4-(methyl-sulfonyl)-1,1′:2′,1″-terphenyl-3′-yl]ethyl}-9H-purin-6-amine] came in with an IC50 of less than 50 nM.

In turn, `CC(Nc1ncnc2[nH]cnc12)c1cc(Cl)cc(-c2cnc(N)nc2)c1-c1cc(F)cc(F)c1` (centres unmarked) [Example 135, N-{1-[6-(2-amino-pyrimidin-5-yl)-4-chloro-3′,5′-difluorobiphenyl-2-yl]ethyl}-9H-purin-6-amine] displayed an IC50 of less than 50 nM.

For `COc1c(-c2cc(F)nc(F)c2)cc(Cl)cc1C(C)Nc1ncnc2[nH]cnc12` (centres unmarked) [Example 141, N-{1-[5-chloro-3-(2,6-difluoropyridin-4-yl)-2-methoxyphenyl]ethyl}-9H-purin-6-amine], the IC50 was in the range of 250 to 500 nM.

The molecule `COc1c(-c2ccc(S(C)(=O)=O)cc2)cc(Cl)cc1C(C)Nc1ncnc2[nH]cnc12` (centres unmarked) [Example 142, N-{1-[5-chloro-2-methoxy-4′-(methylsulfonyl)-biphenyl-3-yl]ethyl}-9H-purin-6-amine] gave an IC50 of 50 to 100 nM.

With `COc1c(-c2cnc(N)nc2)cc(Cl)cc1C(C)Nc1ncnc2[nH]cnc12` (centres unmarked) [Example 143, N-{1-[3-(2-amino-pyrimidin-5-yl)-5-chloro-2-methoxyphenyl]-ethyl}-9H-purin-6-amine], the IC50 was 100 to 250 nM.

In turn, `CNC(=O)c1ccc(-c2cc(Cl)cc(C(C)Nc3ncnc4[nH]cnc34)c2OC)cc1Cl` (centres unmarked) [Example 144, 3,5′-dichloro-2′-methoxy-N-methyl-3′-[1-(9H-purin-6-ylamino)ethyl]biphenyl-4-carboxamide] had an IC50 of less than 50 nM.

On to `COc1c(-c2ccnc(F)c2)cc(Cl)cc1C(C)Nc1ncnc2[nH]cnc12` (centres unmarked) [Example 145, N-{1-[5-chloro-3-(2-fluoropyridin-4-yl)-2-methoxyphenyl]ethyl}-9H-purin-6-amine], for which the IC50 was less than 50 nM.

As for `COc1cncc(-c2cc(Cl)cc(C(C)Nc3ncnc4[nH]cnc34)c2OC)c1` (centres unmarked) [Example 146, N-{1-[5-chloro-2-methoxy-3-(5-methoxy-pyridin-3-yl)phenyl]ethyl}-9H-purin-6-amine], the IC50 fell in the range of 50 to 100 nM.

In turn, `COc1c(-c2ccc(F)nc2)cc(Cl)cc1C(C)Nc1ncnc2[nH]cnc12` (centres unmarked) [Example 147, N-{1-[5-chloro-3-(6-fluoropyridin-3-yl)-2-methoxyphenyl]-ethyl}-9H-purin-6-amine] yielded an IC50 of less than 50 nM.

Molecule `COc1ccc(-c2cc(Cl)cc(C(C)Nc3ncnc4[nH]cnc34)c2OC)cn1` (centres unmarked) [Example 148, N-{1-[5-chloro-2-methoxy-3-(6-methoxypyridin-3-yl)phenyl]ethyl}-9H-purin-6-amine] gave an IC50 of 50 to 100 nM.

For the molecule `Cc1c(Cl)cc(C(C)Nc2ncnc3[nH]cnc23)c(OCCN2CCOCC2)c1-c1cnc(N)nc1` (centres unmarked) [Example 149, N-{1-[3-(2-amino-pyrimidin-5-yl)-5-chloro-4-methyl-2-(2-morpholin-4-ylethoxy)-phenyl]ethyl}-9H-purin-6-amine], the IC50 was less than 50 nM.

As for `COc1cccc(-c2c(C)c(Cl)cc(C(C)Nc3ncnc4[nH]cnc34)c2OCCN2CCOCC2)c1` (centres unmarked) [Example 150, N-{1-[5-chloro-3′-methoxy-6-methyl-2-(2-mor-pholin-4-ylethoxy)-biphenyl-3-yl]ethyl}-9H-purin-6-amine], the IC50 is less than 50 nM.

As to `Cc1c(Cl)cc(C(C)Nc2ncnc3[nH]cnc23)c(OCCN2CCOCC2)c1-c1cncc(Cl)c1` (centres unmarked) [Example 151, N-{1-[5-chloro-3-(5-chloro-pyridin-3-yl)-4-methyl-2-(2-morpho-lin-4-yl-ethoxy)-phenyl]-ethyl}-9H-purin-6-amine], the IC50 is less than 50 nM.
